# Measured values as given in patent US8524493B2, “Released cytokeratins as markers for epithelial cells” (Centre Hospitalier Universitaire de Montpellier, priority 2006, dated 2013).
# Test system: CK19 protein release by viable epithelial cells (cell lines)
# Test: CK19-EPISPOT assay with cycloheximide in cell-cultures
# Format: cell-based, human
# Details: cell lines incubated with 50 μg/mL cycloheximide during the incubation step of the EPISPOT assay
# Protocol: EPISPOT assays. Immobilon-P membrane 96-well plates (MAIPN450, Millipore Corporation, Bedford, Mass.) were coated overnight at 4° C. with the anti-CK19 mAb Ks19.1 (6 μg/mL) (Progen Biotechnik GMBH, Heidelberg, […].). Unbound mAb were removed by washing three times with PBS. The plates were then blocked with PBS supplemented with 5% FCS (Sigma, Chemical Co., Saint Louis, Mo.) for 1 h at room temperature and washed three times with PBS. To block protein synthesis, cell lines were incubated with 50 μg/mL of cycloheximide during the EPISPOT assay. Subsequently, viable cells were counted in a Kovac slide with trypan blue dye exclusion staining and finally plated in three replicate wells at different concentrations (1×10^5, 1×10^4, 1×10^3, 1×10^2, 10 and 1 cells). In addition, 5×10^4 to 1×10^5 of enriched CD45^− cells (i) from blood and bone marrow of colon and breast cancer patients, respectively, (ii) from the milk of healthy lactating women (normal primary mammary cells) or (iii) from normal and tumor colon tissues were seeded in different wells of the plates. […] Immunospots were counted by video camera imaging and computer assisted analysis (KS ELISPOT, Carl Zeiss Vision, Halbermoos, Germany). […]
structure (smiles),measurement,value
C[C@@H]1C[C@@H]([C@H](O)CC2CC(=O)NC(=O)C2)C(=O)[C@@H](C)C1 [cycloheximide],size and number of CK19 immunospots (CK19-releasing cells),decrease in the size and the number of spots
